# Measured values as given in patent EP3298025B1, “NEW AMINO ACID SEQUENCES WITH MI[…] DERIVED FROM NAJA ATRA CARDIOTOXIN 1 (CTX-1)” (Università degli Studi di Parma, priority 2015, dated 2016).
# Values joined by “and” are separate entries in the source; they are usually repeats but may differ in a detail not shown here. Equal entries are not always repeated. Residues, ends and D or L forms follow the SMILES beside them.
# How the values were obtained:
# Format in all cases: cell-based
# [1] = system: Klebsiella pneumoniae subsp. pneumoniae (herpetological); experiment: micro-dilution in liquid medium and transplant on agar, Gram-negative bacteria; conditions: 2 hours at 37°C, transplant on agar
# Description: (§1) For each bacterial strain 3-5 morphologically similar colonies from fresh cultures were taken and inoculated in Brain Heart Infusion broth, then incubated at 37°C in agitation at 225 r.p.m. for about 3-4 hours. Then the bacterial suspension was centrifuged at 1000 G for 20 minutes and the pellet resuspended in phosphate buffer pH 7, 10 mM. The turbidity of the bacterial suspension was measured using a spectrophotometer with absorbance of 600 nm; the range 0.08-0.13 equates to about 10^8 cfu/ml. The bacterial suspension was diluted 1:100 in phosphate buffer 10mM to obtain a bacterial concentration of about 10^6 cfu/ml. Within 30 minutes 50 µl of the suspension (10^6 cfu/ml) were inoculated in each well of the microtiter plate, to obtain a bacterial concentration of about 5x10^5 cfu/ml.
# (§2) The peptides ability to inhibit the bacterial growth in liquid cultures was tested. 50 µl of each peptides solutions of about 0,2-50 µM were added in microtiter plates with 96 wells with U-shaped bottom, containing the liquid culture medium and one of these bacterial strains: E coli ATCC 25922, Pseudomonas. Aeruginosa ATCC 27853, Proteus mirabilis ATCC 14153, Burkholderia cepacia ATCC 17759, Moraxella catharralis ATCC 25238 or other wild strains of Klebsiella pneumoniae subsp. pneumoniae, Enterobacter cloacae, Acinetobacter baumanii.
# (§3) After 2 hours incubation at 37°C, the bacteria were transplanted on solid medium. As a growth reference, bacterial cultures were grown in absence of peptides.
# (§4) The bacterial suspension and peptides were put in contact for 2 hours at 37°C, with differing concentrations of the peptide. Then 20 µl from each well of the plate were taken and transferred on solid culture medium, McConkey agar. The inoculum was uniformly distributed on the agar medium with aid of a sterile disposable handle. After an incubation time of 24 hours at 37°C, the bacterial colonies (cfu) were counted.
# [2] = system: Acinetobacter baumanii from skin (herpetological); experiment: as above; conditions: 2 hours at 37°C, transplant on agar
# Description: as §1, §2, §3, §4
# [3] = system: Enterobacter cloacae (herpetological); experiment: as above; conditions: 2 hours at 37°C, transplant on agar
# Description: as §1, §2, §3, §4
# [4] = system: Burkholderia cepacia ATCC 17759; experiment: as above; conditions: 2 hours at 37°C, transplant on agar
# Description: as §1, §2, §3, §4
# [5] = system: Proteus mirabilis ATCC 14153; experiment: as above; conditions: 2 hours at 37°C, transplant on agar
# Description: as §1, §2, §3, §4
# E. coli ATCC 25922 = experiment: as above; conditions: 2 hours at 37°C, transplant on agar
# Description: as §1, §2, §3, §4
# E. coli ML-35pYC = experiment: membrane permeabilization assay (CENTA outer membrane, ONPG inner membrane); conditions: peptide 12.5 µg/ml; absorbance every 10 minutes for 240 minutes
# Description: Methods: to test the bacterial membrane permeabilization caused by the peptides of the invention, E. coli ML-35pYC strain was used. This bacterial strain express ampicillin resistence, a constitutive expression of cytoplasmic β-galactosidase and is engineered with a plasmid for a periplasmic β-lactamase synthesis. Sixty microliters (60 µl) of bacterial suspension, containing E. coli ML-35pYC strain, were added to 60 µl of ONPG solution (15 mM) or to 60 µl of CENTA (1,5 mM) diluted in phosphate buffer. Subsequently 120 µl of the examined peptide were added, to obtain a final concentration of 12.5 µg/ml (NCP-2=5,4 µM, NCP-3=5.2 µM). The absorbance value was registered at […] for ONPG and at 405 nm for CENTA, every 10 minutes for 240 minutes to assess the reaction's kinetics.
# [6] = system: Streptococcus agalactiae ATCC 13813; experiment: micro-dilution in liquid medium and transplant on solid medium, Gram-positive bacteria; conditions: 2 hours at 37°C, transplant on agar
# Description: as §1, with “0,08-0,13” for “0.08-0.13”, “10^6 cfu/ml” for “(10^6 cfu/ml)”
# (§5) The peptides ability to inhibit the bacterial growth in liquid cultures was tested. 50 µl of each peptides solutions of about 0.2-50 µM were added in microtiter plates with 96 wells with liquid culture medium and one of these bacterial strains: Staphylococcus aureus ATCC 25923, MRSA ATCC 43300, Streptococcus agalactiae ATCC 13813 and Enterococcus hirae ATCC 10541. After 2 hours of incubation at 37°C, bacterial suspensions were put on solid culture medium. Bacterial cultures were cultivated without peptides as growth control.
# (§6) The bacterial suspension and differing peptides concentrations were put in contact for about 2 hours at 37°C. After this incubation, 20 µl from each well of the plate were transplanted on solid culture medium, Columbia agar with 5% of bovine erythrocytes for Gram-positive bacteria. The inoculum was evenly distributed on the agar medium with the aid of a sterile disposable handle. After an incubation time of 24 hours at 37°C, the bacterial colonies (cfu) were counted.
# [7] = system: Staphylococcus aureus ATCC 22953; experiment: as above; conditions: 2 hours at 37°C, transplant on agar
# Description: as §1, with “0,08-0,13” for “0.08-0.13”, “10^6 cfu/ml” for “(10^6 cfu/ml)”
# as §5, §6
# [8] = system: Enterococcus hirae ATCC 10541; experiment: as above; conditions: 2 hours at 37°C, transplant on agar
# Description: as §1, with “0,08-0,13” for “0.08-0.13”, “10^6 cfu/ml” for “(10^6 cfu/ml)”
# as §5, §6
smiles,measurement,setting,value
"CC[C@H](C)[C@H](NC(=O)[C@H](CCCCN)NC(=O)[C@H](Cc1ccc(O)cc1)NC(=O)[C@H](CS)NC(=O)[C@H](CC(C)C)NC(=O)[C@H](CC(N)=O)NC(=O)[C@H](CCCCN)NC(=O)CNC(=O)[C@H](C)NC(=O)[C@@H]1CCCN1C(=O)[C@H](CS)NC(=O)[C@@H](NC(=O)[C@H](CCCCN)NC(=O)[C@H](CO)NC(=O)[C@H](C)NC(=O)[C@@H](NC(=O)[C@@H]1CCCN1C(=O)[C@@H](NC(=O)[C@H](CC(C)C)NC(=O)[C@@H](N)CCCCN)[C@@H](C)CC)[C@@H](C)CC)[C@@H](C)O)C(=O)O [NCP-0, K LIPIA SKT CPA GKN LCY KI] (H-KLIPIASKTCPAGKNLCYKI-OH; N-terminus and C-terminus assumed)",LD90,[1],> 100 µg/ml and > 46.3 µM
same,LD99,[1],> 200 µg/ml and > 92.6 µM
same,LD99,[2],117.96 µg/ml and 54.6 µM
same,LD90,[3],> 100 µg/ml and > 46.3 µM
same,LD99,[3],> 200 µg/ml and > 92.6 µM
same,LD90,[4],39.35 µg/ml and 17.8 µM
same,LD99,[4],39.43 µg/ml and 18.3 µM
same,LD90,[5],> 100 µg/ml and > 46.3 µM
same,LD99,[5],> 200 µg/ml and > 92.6 µM
same,LD90,E. coli ATCC 25922,152.02 µg/ml and 70 µM
same,damage to the inner membrane (ONPG),E. coli ML-35pYC,had not demonstrated activity on outer or inner membrane
same,damage to the outer membrane (CENTA),E. coli ML-35pYC,had not demonstrated activity on outer or inner membrane
same,LD90,[6],100 µg/ml and 46.3 µM
same,LD99,[6],> 100 µg/ml and > 46.3 µM
same,LD90,[7],> 100 µg/ml and > 46.3 µM
same,LD99,[7],> 200 µg/ml and > 92.6 µM
same,LD90,[8],> 100 µg/ml and > 46.3 µM
same,LD99,[8],> 200 µg/ml and > 92.6 µM
